Patent publication US8952024B2, “Herbicidal pyrimidone derivatives” (E I du Pont de Nemours and Company, priority 2009, dated 2015)

Tests used:
Assay in all cases: Test B pre-/postemergence plant response
Assay type in all cases: in vivo
[1] = system: Italian ryegrass (Lolium multiflorum); conditions: for Plant response rating, Ryegrass, Italian: Postemergence; for Ryegrass, Italian plant response rating (0 to 100 scale): 62 g ai/ha, postemergence, 0 is no effect, 100 is complete control
Procedure, shortened: (§1)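 Test compounds, formulated in a non-phytotoxic solvent mixture with surfactant, are applied to the soil surface (loam and sand blend) right after seeding, or sprayed over plants at the 1- to 4-leaf stage grown in peat moss/vermiculite medium. After 13 to 15 days under glasshouse conditions, each species is scored visually from 0 (no effect) to 100 (complete control) against controls.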

[2] = system: Surinam grass (Brachiaria decumbens); conditions: for Plant response rating, Surinam Grass: Postemergence; for Surinam Grass plant response rating (0 to 100 scale): 62 g ai/ha, postemergence, 0 is no effect, 100 is complete control
Procedure, shortened: as §1

[3] = system: bermudagrass (Cynodon dactylon); conditions: for Plant response rating, Bermudagrass: Postemergence; for Bermudagrass plant response rating (0 to 100 scale): 62 g ai/ha, postemergence, 0 is no effect, 100 is complete control
Procedure, shortened: as §1

[4] = system: blackgrass (Alopecurus myosuroides); conditions: for Plant response rating, Blackgrass: Postemergence; for Blackgrass plant response rating (0 to 100 scale): 62 g ai/ha, postemergence, 0 is no effect, 100 is complete control
Procedure, shortened: as §1

corn (Zea mays) = conditions: for Plant response rating, Corn: Postemergence; for Corn plant response rating (0 to 100 scale): 62 g ai/ha, postemergence, 0 is no effect, 100 is complete control
Procedure, shortened: as §1

[5] = system: downy bromegrass (Bromus tectorum); conditions: for Plant response rating, Bromegrass, Downy: Postemergence; for Bromegrass, Downy plant response rating (0 to 100 scale): 62 g ai/ha, postemergence, 0 is no effect, 100 is complete control
Procedure, shortened: as §1

[6] = system: giant foxtail (Setaria faberii); conditions: for Plant response rating, Foxtail, Giant: Postemergence; for Foxtail, Giant plant response rating (0 to 100 scale): 62 g ai/ha, postemergence, 0 is no effect, 100 is complete control
Procedure, shortened: as §1

[7] = system: green foxtail (Setaria viridis); conditions: for Plant response rating, Foxtail, Green: Postemergence; for Foxtail, Green plant response rating (0 to 100 scale): 62 g ai/ha, postemergence, 0 is no effect, 100 is complete control
Procedure, shortened: as §1

[8] = system: lambsquarters (Chenopodium album); conditions: for Plant response rating, Lambsquarters: Postemergence; for Lambsquarters plant response rating (0 to 100 scale): 62 g ai/ha, postemergence, 0 is no effect, 100 is complete control
Procedure, shortened: as §1

[9] = system: large crabgrass (Digitaria sanguinalis); conditions: for Plant response rating, Crabgrass, Large: Postemergence; for Crabgrass, Large plant response rating (0 to 100 scale): 62 g ai/ha, postemergence, 0 is no effect, 100 is complete control
Procedure, shortened: as §1

[10] = system: morningglory (Ipomoea coccinea); conditions: for Plant response rating, Morningglory: Postemergence; for Morningglory plant response rating (0 to 100 scale): 62 g ai/ha, postemergence, 0 is no effect, 100 is complete control
Procedure, shortened: as §1

[11] = system: woolly cupgrass (Eriochloa villosa); conditions: for Plant response rating, Cupgrass, Woolly: Postemergence; for Cupgrass, Woolly plant response rating (0 to 100 scale): 62 g ai/ha, postemergence, 0 is no effect, 100 is complete control
Procedure, shortened: as §1

[12] = system: yellow nutsedge (Cyperus esculentus); conditions: for Plant response rating, Nutsedge, Yellow: Postemergence; for Nutsedge, Yellow plant response rating (0 to 100 scale): 62 g ai/ha, postemergence, 0 is no effect, 100 is complete control
Procedure, shortened: as §1

[13] = 31 g ai/ha, 0 to 100 scale (0 no effect, 100 complete control)
[14] = 125 g ai/ha, scale 0 to 100 (0 no effect, 100 complete control)
[15] = 250 g ai/ha, scale 0 to 100 (0 no effect, 100 complete control), 13 to 15 days

O=C1CCCC(O)=C1C(=O)c1cnc(-c2ccccc2)n(C2CCCC2)c1=O [Compound 131]
95: Plant response rating, Foxtail, Green [7, 14] | Lambsquarters plant response rating (0 to 100 scale) ([8]; 13 to 15 days)
25: Nutsedge, Yellow plant response rating (0 to 100 scale) ([12]; 13 to 15 days)
60: Surinam Grass plant response rating (0 to 100 scale) ([2]; 13 to 15 days) | Plant response rating, Bermudagrass ([3]; 16 g ai/ha, 0 to 100 scale) | Cupgrass, Woolly plant response rating (0 to 100 scale) ([11]; 13 to 15 days)
40: Plant response rating, Foxtail, Green ([7]; 16 g ai/ha, 0 to 100 scale)
20: Plant response rating, Surinam Grass [2, 13] | Plant response rating, Corn (corn (Zea mays); [14])
85: Plant response rating, Bermudagrass [3, 14] | Plant response rating, Lambsquarters [8, 13]
75: Bermudagrass plant response rating (0 to 100 scale) ([3]; 13 to 15 days) | Foxtail, Giant plant response rating (0 to 100 scale) ([6]; 13 to 15 days) | Plant response rating, Foxtail, Giant [6, 13] | Plant response rating, Lambsquarters ([8]; 16 g ai/ha, 0 to 100 scale) | Crabgrass, Large plant response rating (0 to 100 scale) ([9]; 13 to 15 days) | Plant response rating, Crabgrass, Large [9, 13] | Plant response rating, Morningglory [10, 14]
15: Plant response rating, Surinam Grass ([2]; 16 g ai/ha, 0 to 100 scale) | Plant response rating, Nutsedge, Yellow [12, 13]
98: Plant response rating, Lambsquarters [8, 14]
45: Plant response rating, Nutsedge, Yellow [12, 14]
80: Plant response rating, Foxtail, Giant [6, 14] | Plant response rating, Crabgrass, Large [9, 14]
70: Plant response rating, Foxtail, Green [7, 13] | Morningglory plant response rating (0 to 100 scale) ([10]; 13 to 15 days) | Plant response rating, Morningglory [10, 13]
90: Foxtail, Green plant response rating (0 to 100 scale) ([7]; 13 to 15 days)
5: Plant response rating, Morningglory ([10]; 16 g ai/ha, 0 to 100 scale)
0: Plant response rating, Ryegrass, Italian ([1]; 16 g ai/ha, 0 to 100 scale) | Ryegrass, Italian plant response rating (0 to 100 scale) ([1]; 13 to 15 days) | Plant response rating, Ryegrass, Italian [1, 13] | Plant response rating, Ryegrass, Italian [1, 14] | Plant response rating, Blackgrass ([4]; 16 g ai/ha, 0 to 100 scale) | Blackgrass plant response rating (0 to 100 scale) ([4]; 13 to 15 days) | Plant response rating, Blackgrass [4, 13] | Plant response rating, Blackgrass [4, 14] | Plant response rating, Corn (corn (Zea mays); 16 g ai/ha, 0 to 100 scale) | Plant response rating, Corn (corn (Zea mays); [13]) | Plant response rating, Bromegrass, Downy ([5]; 16 g ai/ha, 0 to 100 scale) | Bromegrass, Downy plant response rating (0 to 100 scale) ([5]; 13 to 15 days) | Plant response rating, Bromegrass, Downy [5, 13] | Plant response rating, Bromegrass, Downy [5, 14] | Plant response rating, Nutsedge, Yellow ([12]; 16 g ai/ha, 0 to 100 scale)
50: Plant response rating, Cupgrass, Woolly [11, 13]
10: Corn plant response rating (0 to 100 scale) (corn (Zea mays); 13 to 15 days) | Plant response rating, Cupgrass, Woolly ([11]; 16 g ai/ha, 0 to 100 scale)
65: Plant response rating, Surinam Grass [2, 14] | Plant response rating, Bermudagrass [3, 13] | Plant response rating, Foxtail, Giant ([6]; 16 g ai/ha, 0 to 100 scale) | Plant response rating, Crabgrass, Large ([9]; 16 g ai/ha, 0 to 100 scale) | Plant response rating, Cupgrass, Woolly [11, 14]

COCCCn1c(-c2cccc(Br)c2)ncc(C(=O)C2=C(O)CCCC2=O)c1=O [Compound 140]
20: Plant response rating, Bromegrass, Downy [5, 15]
25: Plant response rating, Corn (corn (Zea mays); [14])
80: Plant response rating, Foxtail, Giant [6, 14] | Plant response rating, Lambsquarters [8, 15] | Plant response rating, Crabgrass, Large [9, 14]
45: Plant response rating, Corn (corn (Zea mays); [15]) | Plant response rating, Foxtail, Green [7, 13] | Plant response rating, Lambsquarters [8, 13] | Nutsedge, Yellow plant response rating (0 to 100 scale) ([12]; 13 to 15 days)
50: Surinam Grass plant response rating (0 to 100 scale) ([2]; 13 to 15 days) | Plant response rating, Surinam Grass [2, 13] | Plant response rating, Crabgrass, Large [9, 13] | Cupgrass, Woolly plant response rating (0 to 100 scale) ([11]; 13 to 15 days) | Plant response rating, Cupgrass, Woolly [11, 13]
95: Plant response rating, Foxtail, Green [7, 15]
0: Ryegrass, Italian plant response rating (0 to 100 scale) ([1]; 13 to 15 days) | Plant response rating, Ryegrass, Italian [1, 13] | Plant response rating, Ryegrass, Italian [1, 14] | Blackgrass plant response rating (0 to 100 scale) ([4]; 13 to 15 days) | Plant response rating, Blackgrass [4, 13] | Plant response rating, Corn (corn (Zea mays); [13]) | Plant response rating, Bromegrass, Downy [5, 13] | Plant response rating, Morningglory [10, 13]
55: Plant response rating, Surinam Grass [2, 14]
85: Plant response rating, Bermudagrass [3, 14] | Plant response rating, Foxtail, Green [7, 14]
10: Plant response rating, Nutsedge, Yellow [12, 13]
60: Plant response rating, Bermudagrass [3, 13] | Foxtail, Green plant response rating (0 to 100 scale) ([7]; 13 to 15 days) | Lambsquarters plant response rating (0 to 100 scale) ([8]; 13 to 15 days) | Morningglory plant response rating (0 to 100 scale) ([10]; 13 to 15 days)
90: Plant response rating, Bermudagrass [3, 15] | Plant response rating, Foxtail, Giant [6, 15] | Plant response rating, Crabgrass, Large [9, 15]
75: Bermudagrass plant response rating (0 to 100 scale) ([3]; 13 to 15 days) | Foxtail, Giant plant response rating (0 to 100 scale) ([6]; 13 to 15 days) | Plant response rating, Lambsquarters [8, 14] | Plant response rating, Nutsedge, Yellow [12, 15]
5: Plant response rating, Ryegrass, Italian [1, 15] | Plant response rating, Blackgrass [4, 14] | Plant response rating, Blackgrass [4, 15] | Corn plant response rating (0 to 100 scale) (corn (Zea mays); 13 to 15 days) | Bromegrass, Downy plant response rating (0 to 100 scale) ([5]; 13 to 15 days) | Plant response rating, Bromegrass, Downy [5, 14]
65: Plant response rating, Surinam Grass [2, 15] | Plant response rating, Foxtail, Giant [6, 13] | Crabgrass, Large plant response rating (0 to 100 scale) ([9]; 13 to 15 days) | Plant response rating, Morningglory [10, 14] | Plant response rating, Morningglory [10, 15] | Plant response rating, Cupgrass, Woolly [11, 14] | Plant response rating, Cupgrass, Woolly [11, 15] | Plant response rating, Nutsedge, Yellow [12, 14]
